Key:
[1] = system: human osteosarcoma cells (MG-63); assay: Assessment of cytotoxicity by SRB assay (MG-63); assay type: cell-based; details: 0.01 μM to 100 μM, 72 h
Method: (§1) The human prostate cancer cells (PC3) and human osteosarcoma cells (MG-63) were obtained from Nawah Scientific Inc. (Mokatam, Cairo, Egypt) and cultured in DMEM (Dulbecco's modified eagle's medium), Gibco, USA, supplemented with fetal bovine serum (FBS) at a concentration of 10% and 100 U/mL of penicillin and streptomycin (PS). The Cells were incubated at 37° C. in a humidified environment that contained 5% CO2.
(§2) Cells were seeded in 96-well plates as aliquots of 100 μL cell suspension and incubated in a complete media for 24 h. Afterward, cells were treated with 3-(2-(4-methoxypyridin-3-yl)-4,5-diphenyl-1H-imidazol-1-yl)-N,N-dimethylpropan-1-amine at diverse concentrations ranging from 0.01 μM to 100 μM for 72 h. Then, cells were fixed at 4° C. for one hour with 150 μL of 10% trichloroacetic acid (TCA). After washing the cells five times with distilled water, 70 μL of sulforhodamine (SRB) solution (0.4% w/v) was added and incubated for 10 min at room temperature in a dark place. […] Then, 150 μL of Tris pH 10.5 (10 mM) was added, and the absorbance was measured at 540 nm using a BMG LABTECH®-FLUOstar Omega microplate reader (Ortenberg, Germany). Half maximal inhibitory concentrations (IC50) values were calculated for each experiment using GraphPad Prism 6 software. […]
(§3) The inhibition was calculated using the following equation: Inhibition %=100−Average Viability

[2] = system: human prostate cancer cells (PC3); assay: Assessment of cytotoxicity by SRB assay (PC3); assay type: cell-based; details: 0.01 μM to 100 μM, 72 h
Method: as §1, §2, §3

COc1ccncc1-c1nc(-c2ccccc2)c(-c2ccccc2)n1CCCN(C)C [3-(2-(4-methoxypyridin-3-yl)-4,5-diphenyl-1H-imidazol-1-yl)-N,N-dimethylpropan-1-amine]
melting point: 128 to 131 °C | antiproliferative activity against osteosarcoma (MG-63) cells [1]: excellent antiproliferative activities | antiproliferative activity against cancer cells (PC3) [2]: excellent antiproliferative activities
